Laboratory results from patent US20260085034A1, “N-(BENZHYDRYL)CYCLOALKYLCARBOXAMIDE DERIVATIVES AS INHIBITORS OF GLYCOGEN SYNTHASE 1 (GYS1) AND METHODS OF USE THEREOF” (Maze Therapeutics, Inc., priority 2022, published 2026).

Key:
[1] = molecular target: T1, recombinant hGYS1/GN1 protein (Homo sapiens, UniProt P13807); experiment: GYS1 coupled enzyme assay (PK/LDH); format: biochemical; details: geometric mean of at least 2 assay runs; NADH absorbance at 340 nm
T1 sequence (P13807 1-737): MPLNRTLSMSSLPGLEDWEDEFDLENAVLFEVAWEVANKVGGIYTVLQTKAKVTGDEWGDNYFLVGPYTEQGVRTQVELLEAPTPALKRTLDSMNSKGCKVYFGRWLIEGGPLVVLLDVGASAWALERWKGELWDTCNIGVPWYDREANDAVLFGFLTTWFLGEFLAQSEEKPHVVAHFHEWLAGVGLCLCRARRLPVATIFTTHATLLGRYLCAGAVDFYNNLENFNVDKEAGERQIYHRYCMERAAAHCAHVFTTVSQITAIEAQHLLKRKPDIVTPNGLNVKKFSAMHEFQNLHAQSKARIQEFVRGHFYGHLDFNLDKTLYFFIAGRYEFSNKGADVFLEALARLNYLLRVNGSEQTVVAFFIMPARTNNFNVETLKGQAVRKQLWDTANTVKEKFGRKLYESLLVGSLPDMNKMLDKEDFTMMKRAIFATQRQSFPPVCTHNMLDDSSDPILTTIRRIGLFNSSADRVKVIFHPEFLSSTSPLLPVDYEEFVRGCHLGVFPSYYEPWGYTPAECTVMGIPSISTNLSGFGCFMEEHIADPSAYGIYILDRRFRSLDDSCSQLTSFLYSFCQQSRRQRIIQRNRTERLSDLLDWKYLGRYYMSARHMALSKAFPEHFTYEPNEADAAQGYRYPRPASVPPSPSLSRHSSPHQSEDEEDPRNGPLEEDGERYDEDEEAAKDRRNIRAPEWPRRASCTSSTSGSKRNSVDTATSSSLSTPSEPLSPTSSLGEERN
T1 sequence (P46976 1-350 partner): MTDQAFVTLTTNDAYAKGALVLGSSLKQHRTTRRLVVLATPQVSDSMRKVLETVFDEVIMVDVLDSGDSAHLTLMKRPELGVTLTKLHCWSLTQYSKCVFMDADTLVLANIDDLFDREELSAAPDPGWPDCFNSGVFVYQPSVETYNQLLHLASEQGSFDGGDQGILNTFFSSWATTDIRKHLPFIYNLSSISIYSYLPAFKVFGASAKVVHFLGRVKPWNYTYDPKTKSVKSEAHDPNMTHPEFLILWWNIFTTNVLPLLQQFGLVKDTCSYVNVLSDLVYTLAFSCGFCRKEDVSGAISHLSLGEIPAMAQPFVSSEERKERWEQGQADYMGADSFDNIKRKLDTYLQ
Source text: (§1) The GYS1 coupled enzyme assay is a kinetic biochemical assay that indirectly quantifies the rate of glycogen synthesis by coupling the conversion of GYS1 substrate UDP-glucose into UDP with downstream enzymatic reactions. UDP is released from UDP-glucose as glucose monomers are linked into the growing glycogen strand by GYS1. The coupled assay then proceeds with pyruvate kinase utilizing UDP and phospho(enol)pyruvate (PEP) to form pyruvate. Lactate dehydrogenase then converts pyruvate and NADH into lactate and NAD+. Oxidation of NADH to NAD+ can be measured continuously with a plate reader by quantifying the decrease in NADH absorbance at 340 nm over time.
Compounds that inhibit the hGYS1 enzyme and, subsequently, the downstream conversion of NADH to NAD+, were tested using assay ready plates (black, clear bottom 384 well plates) in a final DMSO reaction volume of 2.5% DMSO. The Assay Buffer contained 50 mM Tris pH 7.5, 2 mM MgCl2, and 100 mM KCl. Fresh stocks of BSA at a final concentration of 0.02% and TCEP at 1 mM were added before splitting buffer into hGYS1 buffer and substrate buffer. To the hGYS1 buffer, rabbit liver glycogen was added at a final concentration of 0.2% glycogen. Glucose-6-Phosphate was added at 1 mM, recombinant hGYS1/GN1 protein was added at 50 nM to the substrate buffer, phosphoenolpyruvate (PEP) was added at 2 mM, UDP-Glucose was added at 0.8 mM, NADH) was added at 0.6 mM, and Pyruvate Kinase/Lactate Dehydrogenase was added at 20 units/mL. The reaction was initiated by mixing hGYS1 buffer and substrate buffer at a 1:1 ratio. Both buffers were plated using a liquid dispensing device with hGYS1 buffer plated first followed by the substrate buffer. Plates were spun briefly to eliminate air bubbles and are immediately read in continuous mode at an absorbance of 340 nm, for 10 time points in one-minute increments, for a total of 10 minutes. The slope from these 10 time points was normalized to the positive and negative control wells. The duplicate % inhibition values are then averaged and fit to a Hill equation for dose response according to the Levenberg-Marquardt algorithm with the Hill equation maximum set to 100 and the minimum set to 0.
The results are shown in Table 3 below, which reports the IC50 of each compound. Unless otherwise specified, IC50 values are reported as the geometric mean of at least 2 assay runs on separate days. Each run represents the average of a technical replicate, where each compound was assayed twice in the same plate. As shown in the table below, the compounds of the present invention are potent inhibitors of human GYS1.

[2] = molecular target: T2, recombinant hGYS2/GN1 protein (Homo sapiens, UniProt P54840); experiment: GYS2 coupled enzyme assay (PK/LDH); format: biochemical; details: geometric mean of at least 2 assay runs; NADH absorbance at 340 nm
T2 sequence (P54840 1-703): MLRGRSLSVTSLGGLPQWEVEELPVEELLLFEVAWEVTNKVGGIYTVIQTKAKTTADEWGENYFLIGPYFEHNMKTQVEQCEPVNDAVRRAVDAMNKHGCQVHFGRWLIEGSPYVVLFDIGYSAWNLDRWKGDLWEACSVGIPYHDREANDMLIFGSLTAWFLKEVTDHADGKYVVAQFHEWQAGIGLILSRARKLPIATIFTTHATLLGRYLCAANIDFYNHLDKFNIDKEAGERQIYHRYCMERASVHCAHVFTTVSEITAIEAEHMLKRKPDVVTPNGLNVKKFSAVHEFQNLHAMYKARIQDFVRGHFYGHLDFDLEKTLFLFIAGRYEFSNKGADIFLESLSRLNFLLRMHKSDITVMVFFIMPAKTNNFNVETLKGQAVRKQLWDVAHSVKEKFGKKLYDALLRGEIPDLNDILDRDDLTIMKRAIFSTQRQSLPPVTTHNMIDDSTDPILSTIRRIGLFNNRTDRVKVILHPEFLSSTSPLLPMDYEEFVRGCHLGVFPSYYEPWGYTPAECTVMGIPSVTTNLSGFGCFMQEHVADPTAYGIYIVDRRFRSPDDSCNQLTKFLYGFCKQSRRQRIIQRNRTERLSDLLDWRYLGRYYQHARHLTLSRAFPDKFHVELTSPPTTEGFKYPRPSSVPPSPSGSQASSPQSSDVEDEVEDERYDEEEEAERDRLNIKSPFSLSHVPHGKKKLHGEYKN
T2 sequence (P46976 1-350 partner): T1 sequence (P46976 1-350 partner)
Source text: as §1, with “GYS2” for “GYS1”, “GYS2.” for “GYS1.”
Compounds that inhibit the hGYS2 enzyme and, subsequently, the downstream conversion of NADH to NAD+, were tested using assay ready plates (black, clear bottom 384 well plates) in a final DMSO reaction volume of 2.5% DMSO. The Assay Buffer contained 50 mM Tris pH 7.5, 2 mM MgCl2, and 100 mM KCl. Fresh stocks of BSA at a final concentration of 0.02% and TCEP 1 mM were added before splitting buffer into hGYS2 buffer and substrate buffer. To the hGYS2 buffer, rabbit liver glycogen was added at a final concentration of 0.2% glycogen. Glucose-6-Phosphate was added at 2 mM, recombinant hGYS2/GN1 protein was added at 200 nM to the substrate buffer, phosphoenolpyruvate (PEP) was added at 2 mM, UDP-Glucose was added at 2 mM, NADH was added at 0.6 mM, and Pyruvate Kinase/Lactate Dehydrogenase was added at 20 units/mL. The reaction was initiated by mixing hGYS2 buffer and substrate buffer at a 1:1 ratio. Both buffers were plated using a liquid dispensing device with hGYS2 buffer plated first followed by the substrate buffer. Plates were spun briefly to eliminate air bubbles and are immediately read in continuous mode at an absorbance of 340 nm, for 10 time points in one-minute increments, for a total of 10 minutes. The slope from these 10 time points was normalized to the positive and negative control wells. The duplicate % inhibition values are then averaged and fit to a Hill equation for dose response according to the Levenberg-Marquardt algorithm with the Hill equation maximum set to 100 and the minimum set to 0.
The results are shown in Table 5 below, which reports the IC50 of each compound. Unless otherwise specified, IC50 values are reported as the geometric mean of at least 2 assay runs on separate days. As shown in the table below, the compounds of the present invention are not potent inhibitors of human GYS2. […] Each run represents the average of a technical replicate, where each compound was assayed twice in the same plate.

Row | SMILES | IC50 [1] [nM] | IC50 [2] [nM]
1 | CC(C)c1ccc([C@@H](NC(=O)[C@@H]2C[C@H]2F)c2ccccc2)cc1 [compound 27, (1S,2R)-2-fluoro-N-((S)-(4-isopropylphenyl)(phenyl)methyl)cyclopropane-1-carboxamide] | 598 | > 100000
2 | CC(=O)N1CC(C(=O)Nc2ccccc2[C@H](NC(=O)C2CC2)c2ccc(C(C)C)cc2)C1 [compound 37, (R)-1-acetyl-N-(2-(cyclopropanecarboxamido(4-isopropylphenyl)methyl)phenyl)azetidine-3-carboxamide] | 1060 | > 100000
3 | CC(C)c1ccc([C@@H](NC(=O)C2CC2)c2ccccc2Cl)cc1 (single isomer, unassigned) [compound 58] | 1380 | > 100000
4 | CC(C)c1ccc([C@@H](NC(=O)C2CC2)c2ccccc2NC(=O)C2CNC2)cc1 [compound 48, (R)-N-(2-(cyclopropanecarboxamido(4-isopropylphenyl)methyl)phenyl)azetidine-3-carboxamide] | 1060 | > 100000
5 | CC(C)c1ccc([C@@H](NC(=O)C2CC2)c2ccccc2O)cc1 [compound 67, (R)-N-((2-hydroxyphenyl)(4-isopropylphenyl)methyl)cyclopropanecarboxamide] | 293 | > 100000
6 | COc1ccc([C@H](NC(=O)C2CC2)c2ccc(C(C)C)cc2)cc1 [compound 72, (R)-N-((4-isopropylphenyl)(4-methoxyphenyl)methyl)cyclopropanecarboxamide] | 2680 | > 100000
7 | CC(C)c1ccc([C@@H](NC(=O)C2CC2)c2ccccc2NC(N)=O)cc1 [compound 54, (R)-N-((4-isopropylphenyl)(2-ureidophenyl)methyl)cyclopropanecarboxamide] | 346 | > 100000
8 | CC(=O)Nc1ccccc1[C@H](NC(=O)C1CC1)c1ccc(C(C)C)cc1 [compound 1, (R)-N-((2-acetamidophenyl)(4-isopropylphenyl)methyl)cyclopropanecarboxamide] | 285 | > 100000
9 | CC(C)c1ccc([C@@H](NC(=O)[C@H]2C[C@@H]2F)c2ccccc2NC(N)=O)cc1F (single isomer, unassigned) [compound 10] | 194 | > 100000
10 | COCCN1CCC(C(=O)Nc2ccccc2[C@H](NC(=O)[C@H]2C[C@@H]2F)c2ccc(C(C)C)cc2)CC1 [compound 13, N-(2-((R)-((1R,2S)-2-fluorocyclopropane-1-carboxamido)(4-isopropylphenyl)methyl)phenyl)-1-(2-methoxyethyl)piperidine-4-carboxamide] | 1040 | > 100000
11 | COc1ccccc1[C@H](NC(=O)C1CC1)c1ccc(C(C)C)cc1 (single isomer, unassigned) [compound 71] | 397 | > 100000
12 | COc1cccc([C@H](NC(=O)C2CC2)c2ccc(C(C)C)cc2)c1C [compound 63, (R)-N-((4-isopropylphenyl)(3-methoxy-2-methylphenyl)methyl)cyclopropanecarboxamide] | 1430 | > 100000
13 | CC(C)c1ccc([C@@H](NC(=O)C2CC2)c2cccc3[nH]c(=O)[nH]c23)cc1 (single isomer, unassigned) [compound 29] | 169 | > 100000
14 | Cc1ccccc1[C@H](NC(=O)[C@@H]1CCC[C@@H]1C(=O)NC#N)c1ccc(C(C)C)cc1 [compound 22, (1S,2R)-N^1-cyano-N^2-((R)-(4-isopropylphenyl)(o-tolyl)methyl)cyclopentane-1,2-dicarboxamide] | 1280 | 
15 | CC(C)c1ccc([C@@H](NC(=O)C2CC2)c2ccccc2NC(=O)[C@H]2CCN2)cc1 [compound 50, (R)-N-(2-((R)-cyclopropanecarboxamido(4-isopropylphenyl)methyl)phenyl)azetidine-2-carboxamide] | 1790 | 
